Results as given in patent US12642809B2, “Fucosylation and immune modulation in cancer” (H. LEE MOFFITT CANCER CENTER AND RESEARCH INSTITUTE, INC., priority 2019, dated 2026).
“Also recorded” adds a separate entry of the source.

Assays:
[1] = tested on: SW1 melanoma tumors; assay: SW1 melanoma tumors in C3H/HeN mice fed control or L-fucose water; type: in vivo, mouse; conditions: for reduced tumor growth: 100 mM L-fucose in drinking water from ~150 mm^3
Protocol: To determine which immune cell populations were affected by L-fucose, another mouse melanoma model treated with control or L-fucose-supplemented water was used. First, 1.25×10^6 SW1 mouse melanoma cells were injected into the back right flanks of the mice and allowed the tumors to grow to 150 mm^3. At 150 mm^3 (14 days), 100 mM L-fucose was administered via the drinking water to half of the mice. Tumor growth was monitored (FIGS. 3A and 3B). Total and specific subpopulations of tumor-infiltrating lymphocytes were assessed by cell flow cytometric analysis (FIGS. 3C and 3D). Assessed populations included F4/80 (macrophage)-, Gr-1 (MDSCs)-, Cd11c (Dendritic cells)-, and DX5 (NK cells)-positive cells. For T-cells, we probed for CD3 (general T-cell marker) and further for CD4 and CD8 (for those T cell subpopulations). Of the CD4-positive cells, CD25 positive cells was used to elucidate the T regulatory cells. […] Both CD4 and CD8 positive T cells (CD3+ cells) increased in response to fucose. However, myeloid derived suppressor cells (MDSCs) decreased in response to dietary fucose supplementation.
Tumors of SW1 or SMI melanoma cells from C3H/HeJ or C57BL/6 mice, respectively) were digested using 1× tumor digest buffer (0.5 mg/ml. Collagenase I, 0.5 mg/ml. Collagenase IV, 0.25 mg/ml. Hyalyronidase V. 0.1 mg/ml. DNAse I in HBSS (Millipore Sigma (St. Louis, MO)). Tumors were homogenized using the Miltenyi MACs dissociator. Red blood cells were lysed using ACK lysis buffer (Life Technologies, (Grand Island, NY)). Tumor homogenate cells were counted using a standard hemocytometer. (7) Flow Cytometry (a) TIL Profiling:
(§1) Single-cell suspensions from tumor and spleen tissue were stained with Live/Dead Zombie NIR (Biolegend, (San Diego, CA)) at 1:1,000 in PBS for 20 min. Cell suspensions were spun down and stained with the following antibodies: APC anti-mouse CD3 (0.5 μg/mL, BD Biosciences (San Jose, CA)), Pacific Blue anti-mouse CD4 ([…], BD Biosciences (San Jose, CA)), BV785 anti-mouse CD8 (0.5 μg/mL, BD Biosciences (San Jose, CA)), PerCP anti-mouse CD25 ([…], BD Biosciences (San Jose, CA)), FITC anti-mouse F4/80 (0.5 μg/mL, BD Biosciences (San Jose, CA)), PeCy7 anti-mouse CD11c (0.5 μg/mL, BD Biosciences (San Jose, CA)), PE anti-mouse NK1.1 (0.5 μg/mL, BD Biosciences (San Jose, CA)), PE anti-mouse DX5 (0.5 μg/mL, BD Biosciences (San Jose, CA)), PerCP-Cy5.5 anti-mouse CD11b (0.5 μg/mL, BD Biosciences (San Jose, CA)). After staining, the cells were washed and fixed (2% formaldehyde), followed by another wash and flow cytometric analysis. The compensation controls were prepared using 0.5 μg/ml. of each antibody with beads UltraComp eBeads™, (ThermoFisher Scientific (Waltham, MA)). All samples were subject to flow cytometric analysis using a LSR Flow Cytometer (BD Biosciences (San Jose, CA)). Flow cytometric data was further analyzed using FlowJo™ analysis software (BD Biosciences (San Jose, CA)). TIL profiles were determined as a measure of TIL subpopulations per gram of tumor tissues or % of total splenocytes.
FFPE mouse tumor sections were immunostained with FITC-conjugated AAL lectin (0.4 μg/mL, Vector Laboratories (Burlingame, CA)), rabbit anti-Mart-1 (0.2 μg/mL, Millipore Sigma (St. Louis, MO), and rabbit anti-S100 (0.2 μg/mL, Agilent Technologies (Santa Clara, CA)), followed by AlexaFluor 594 donkey anti-rabbit secondary antibody (0.05 μg/mL, ThermoFisher Scientific (Waltham, MA)). The slides were mounted with VECTASHIELD®+DAPI (Vector Laboratories (Burlingame, CA)). Microscopy images were acquired using a Keyence BZ-X710 microscope (Osaka, Japan), and images were measured for AAL-positive signal within MARTI-/S 100-positive regions (designated as melanoma regions of interest) using FIJI software (NIH). Statistical analysis was performed using GraphPad Prism™ (San Diego, CA).
Four-to-six-week-old female C3HeN and male C57BL6 mice were purchased from Charles Rivers Laboratories for the indicated experiments. […]

[2] = tested on: SM1 tumors; assay: CD4+/CD8+ T cell immunodepletion, SM1 model; type: in vivo, mouse; conditions: CD4+ T cell-depleted mice
Protocol: as §1, with “All samples were subject to flow cytometric analysis using a LSR Flow Cytometer (BD Biosciences (San Jose, CA)).” left out, “splenocytes. […]” for “splenocytes.”

[3] = tested on: MDSCs; assay: IFNγ of T cells co-cultured with pre-treated MDSCs; type: cell-based, BalbC mice; conditions: CD3/CD28 bead activation
From the text: Shown are IFNγ production/secretion levels of combined bulk CD4^+ and CD8^+ T cells from BalbC mice treated with either DMSO (black column) or L-fucose (red column) or co-cultured with MDSCs pre-treated with DMSO (aquamarine column) or with L-fucose (purple column). The T cells were activated using CD3/CD28 beads.

[4] = empty vector-expressing SW1 tumors
[5] = vs control diet, listed as L-fuc

SMILES: C[C@H](O)[C@@H](O)[C@@H](O)[C@H](O)C=O [L-fucose]
- increase in tumor fucosylation ([1]; 100 mM L-fucose in drinking water): ~2.25 fold
- reduced tumor growth [1]: > 65%
- reduced tumor growth ([1]; listed as L-fuc): ~50%
- increase in total TIL counts / infiltrating immune cells per gram of tumor ([1]; 100 mM L-fucose in drinking water, flow cytometry): 10-50 fold
- reduced growth of EV tumors [1, 4]: ~50%
- total TILs in EV tumors [1, 4]: doubling
- splenic lymphocyte profiles ([1]; flow cytometry): without significant changes
- additive effect of L-fuc in mFuk tumors ([1]; mFuk-expressing SW1 tumors): No additive effects
- absolute counts of each TIL subpopulation ([1]; vs control diet): increased
- intratumoral CD4+ and CD8+ T cells ([1]; vs control diet): increased; also recorded: doubled
- myeloid derived suppressor cells (MDSCs) in tumor ([1]; vs control diet): decreased
- overall immune infiltration of tumors ([1]; vs control diet): increased
- intratumoral CD4+ and CD8+ T cells [1, 5]: doubling
- myeloid derived suppressor cells (MDSCs) in tumor [1, 5]: either decreased or low
- L-fuc-triggered suppression of SM1 tumors and TIL increases [2]: abrogated
- MDSC-mediated suppression of T cell IFNγ production/secretion [3]: completely reverts MDSC-mediated T cell suppression
